In patent US8759361B2, “2-phenoxy pyrimidinone analogues” (Neurogen Corporation, priority 2006, dated 2014) one finds IC50 data, which are given here for 28 molecules.

The target of the assay is T1, human capsaicin receptor (Homo sapiens, UniProt Q8NER1).
T1 construct: expressed in transfected cells
Briefly: Calcium mobilization assay, determination of antagonist activity (Example 6). The format is cell-based. The following applies: cells expressing human capsaicin receptor, capsaicin-induced fluorescence response. The procedure:
A cDNA encoding full length human capsaicin receptor (SEQ ID NO:1, 2 or 3 of U.S. Pat. No. 6,482,611) is subcloned in the plasmid pBK-CMV (Stratagene, La Jolla, Calif.) for recombinant expression in mammalian cells.
Human embryonic kidney (HEK293) cells are transfected with the pBK-CMV expression construct encoding the full length human capsaicin receptor using standard methods. The transfected cells are selected for two weeks in media containing G418 (400 μg/ml) to obtain a pool of stably transfected cells. Independent clones are isolated from this pool by limiting dilution to obtain clonal stable cell lines for use in subsequent experiments.
Cells transfected with expression plasmids (as described in Example 4) and thereby expressing human capsaicin receptor are seeded and grown to 70-90% confluency in FALCON black-walled, clear-bottomed 96-well plates (#3904, BECTON-DICKINSON, Franklin Lakes, N.J.). The culture medium is emptied from the 96 well plates and FLUO-3 AM calcium sensitive dye (Molecular Probes, Eugene, Oreg.) is added to each well (dye solution: 1 mg FLUO-3 AM, 440 μL DMSO and 440 μl 20% pluronic acid in DMSO, diluted 1:250 in Krebs-Ringer HEPES (KRH) buffer (25 mM HEPES, 5 mM KCl, 0.96 mM NaH2PO4, 1 mM MgSO4, 2 mM CaCl2, 5 mM glucose, 1 mM probenecid, pH 7.4), 50 μl diluted solution per well). Plates are covered with aluminum foil and incubated at 37° C. for 1-2 hours in an environment containing 5% CO2. After the incubation, the dye is emptied from the plates, and the cells are washed once with KRH buffer, and resuspended in KRH buffer.
To measure the ability of a test compound to agonize or antagonize a calcium mobilization response in cells expressing capsaicin receptors to capsaicin or other vanilloid agonist, the EC50 of the agonist capsaicin is first determined. An additional 20 μl of KRH buffer and 1 μl DMSO is added to each well of cells, prepared as described above. 100 μl capsaicin in KRH buffer is automatically transferred by the FLIPR instrument to each well. Capsaicin-induced calcium mobilization is monitored using either FLUOROSKAN ASCENT (Labsystems; Franklin, Mass.) or FLIPR (fluorometric imaging plate reader system; Molecular Devices, Sunnyvale, Calif.) instruments. Data obtained between 30 and 60 seconds after agonist application are used to generate an 8-point concentration response curve, with final capsaicin concentrations of 1 nM to 3 μM. KALEIDAGRAPH software (Synergy Software, Reading, Pa.) is used to fit the data to the equation: y=a*(1/(1+(b/x)^c)) to determine the 50% excitatory concentration (EC50) for the response. In this equation, y is the maximum fluorescence signal, x is the concentration of the agonist or antagonist (in this case, capsaicin), a is the Emax, b corresponds to the EC50 value and c is the Hill coefficient. Determination of Agonist Activity
Test compounds are dissolved in DMSO, diluted in 20 μl KRH buffer so that the final concentration of test compounds in the assay well is between 1 μM and 5 μM, and added to cells prepared as described above. The 96 well plates containing prepared cells and test compounds are incubated in the dark, at room temperature for 0.5 to 6 hours. It is important that the incubation not continue beyond 6 hours. Just prior to determining the fluorescence response, 100 μl capsaicin in KRH buffer at twice the EC50 concentration determined as described above is automatically added by the FLIPR instrument to each well of the 96 well plate for a final sample volume of 200 μl and a final capsaicin concentration equal to the EC50. The final concentration of test compounds in the assay wells is between 1 μM and 5 μM. […] The concentration of antagonist required to provide a 50% decrease, relative to the response observed in the presence of capsaicin and without antagonist, is the IC50 for the antagonist, and is preferably below 1 micromolar, 100 nanomolar, 10 nanomolar or 1 nanomolar.
A general note: Calcium assays in cells follow changes in intracellular calcium, usually with a dye or a luminescent sensor.

Where [1] appears, read: read-out: IC50 determined as described in Example 6.

Molecules are shown by their SMILES. Like-named read-outs stand apart in the source and are kept apart here. A value given as a limit tells only on which side of the number the result lay.

As a reminder, the IC50 is the concentration that gives 50% inhibition.

T1 sequence (Q8NER1 whole entry): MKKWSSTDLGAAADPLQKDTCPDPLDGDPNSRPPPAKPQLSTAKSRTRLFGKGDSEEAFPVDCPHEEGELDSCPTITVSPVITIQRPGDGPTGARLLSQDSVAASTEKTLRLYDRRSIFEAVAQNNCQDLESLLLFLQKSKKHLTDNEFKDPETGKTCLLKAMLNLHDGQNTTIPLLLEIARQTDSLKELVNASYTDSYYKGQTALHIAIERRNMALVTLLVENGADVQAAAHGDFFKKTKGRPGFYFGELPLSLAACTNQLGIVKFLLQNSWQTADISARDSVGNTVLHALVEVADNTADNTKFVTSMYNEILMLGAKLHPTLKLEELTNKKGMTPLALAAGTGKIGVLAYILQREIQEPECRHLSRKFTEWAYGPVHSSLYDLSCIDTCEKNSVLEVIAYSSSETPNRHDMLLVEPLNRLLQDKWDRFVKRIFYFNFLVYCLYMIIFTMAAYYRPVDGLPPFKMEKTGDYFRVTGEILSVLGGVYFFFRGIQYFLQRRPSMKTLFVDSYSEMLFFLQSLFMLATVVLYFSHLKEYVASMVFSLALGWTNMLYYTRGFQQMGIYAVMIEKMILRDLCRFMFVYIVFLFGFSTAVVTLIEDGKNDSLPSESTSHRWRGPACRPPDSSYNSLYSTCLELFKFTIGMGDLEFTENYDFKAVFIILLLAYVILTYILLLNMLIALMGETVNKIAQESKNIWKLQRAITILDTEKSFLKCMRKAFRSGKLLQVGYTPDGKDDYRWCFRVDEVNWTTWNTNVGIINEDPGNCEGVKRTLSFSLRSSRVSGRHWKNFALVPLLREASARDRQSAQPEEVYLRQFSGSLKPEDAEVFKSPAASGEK

With `Cn1cnc2c(=O)n(-c3ccc(Br)cc3)c(Oc3ccc(F)c(F)c3F)nc21` [Compound 1, 1-(4-Bromophenyl)-9-methyl-2-(2,3,4-trifluorophenoxy)-1,9-dihydro-6H-purin-6-one], under setting [1], the 50% inhibitory concentration (IC50) was at most 100 nM.

`Cn1cnc2c(=O)n(-c3ccc(Cl)nc3)c(Oc3cc(F)c(F)c(F)c3)nc21` [Compound 6, 1-(6-Chloropyridin-3-yl)-9-methyl-2-(3,4,5-trifluorophenoxy)-1H-purin-6(9H)-one]: the half-inhibitory concentration (IC50) under setting [1] was at most 100 nM.

As for `Cn1cnc2c(=O)n(-c3ccc(C#N)nc3)c(Oc3cc(F)c(F)c(F)c3)nc21` [Compound 7, 5-(9-Methyl-6-oxo-2-(3,4,5-trifluorophenoxy)-6H-purin-1(9H)-yl)picolinonitrile], the 50% inhibitory concentration (IC50) under setting [1] was at most 100 nM.

On to `Cn1cnc2c(=O)n(-c3ccc(Cl)cc3)c(Oc3c(F)cc(F)cc3F)nc21` [Compound 8, 1-(4-chlorophenyl)-9-methyl-2-(2,4,6-trifluorophenoxy)-1,9-dihydro-6H-purin-6-one], for which the IC50 (read-out: IC50) was at most 100 nM.

Consider `CCn1cnc2c(=O)n(-c3ccc(F)cc3)c(Oc3c(F)cc(F)cc3F)nc21` [Compound 9, 9-ethyl-1-(4-fluorophenyl)-2-(2,4,6-trifluorophenoxy)-1,9-dihydro-6H-purin-6-one], for which the IC50 (read-out: IC50) was at most 100 nM.

For `Cn1cnc2c(=O)n(-c3ccc(Cl)cc3)c(Oc3ccc(F)c(F)c3F)nc21` [Compound 10, 1-(4-chlorophenyl)-9-methyl-2-(2,3,4-trifluorophenoxy)-1,9-dihydro-6H-purin-6-one], the half-inhibitory concentration (IC50) (read-out: IC50) was at most 100 nM.

In the case of `CCn1cnc2c(=O)n(-c3ccc(F)cc3)c(Oc3ccc(F)c(F)c3F)nc21` [Compound 11, 9-ethyl-1-(4-fluorophenyl)-2-(2,3,4-trifluorophenoxy)-1,9-dihydro-6H-purin-6-one], the IC50 (read-out: IC50) is at most 100 nM.

As for `Cn1cnc2c(=O)n(-c3ccc(F)cc3)c(Oc3c(F)cc(F)cc3F)nc21` [Compound 12, 1-(4-fluorophenyl)-9-methyl-2-(2,4,6-trifluorophenoxy)-1,9-dihydro-6H-purin-6-one], for the setting “read-out: IC50”, the IC50 was at most 100 nM.

Turning to `Cn1cnc2c(=O)n(-c3ccc(F)cc3)c(Oc3cc(F)cc(F)c3F)nc21` [Compound 20, 1-(4-fluorophenyl)-9-methyl-2-(2,3,5-trifluorophenoxy)-1,9-dihydro-6H-purin-6-one], for the setting “read-out: IC50”, the IC50 was at most 100 nM.

For the molecule `Cn1cnc2c(=O)n(-c3ccc(Cl)cc3)c(Oc3cccc(F)c3F)nc21` [Compound 21, 1-(4-chlorophenyl)-2-(2,3-difluorophenoxy)-9-methyl-1,9-dihydro-6H-purin-6-one], the IC50 (read-out: IC50) is at most 100 nM.

On to `Cn1cnc2c(=O)n(-c3ccc(F)cc3)c(Oc3ccc(F)cc3Cl)nc21` [Compound 22, 2-(2-chloro-4-fluorophenoxy)-1-(4-fluorophenyl)-9-methyl-1,9-dihydro-6H-purin-6-one], for which, under “read-out: IC50”, the IC50 is at most 100 nM.

As to `Cn1cnc2c(=O)n(-c3ccc(Cl)cc3)c(Oc3ccc(F)cc3Cl)nc21` [Compound 23, 2-(2-chloro-4-fluorophenoxy)-1-(4-chlorophenyl)-9-methyl-1,9-dihydro-6H-purin-6-one], the IC50 (read-out: IC50) is at most 100 nM.

Regarding `Cn1cnc2c(=O)n(-c3ccc(F)cc3)c(Oc3c(F)ccc(F)c3F)nc21` [Compound 24, 1-(4-fluorophenyl)-9-methyl-2-(2,3,6-trifluorophenoxy)-1,9-dihydro-6H-purin-6-one], the IC50 (read-out: IC50) was at most 100 nM.

In the case of `Cn1cnc2c(=O)n(-c3ccc(Cl)cc3)c(Oc3c(F)ccc(F)c3F)nc21` [Compound 25, 1-(4-chlorophenyl)-9-methyl-2-(2,3,6-trifluorophenoxy)-1,9-dihydro-6H-purin-6-one], under “read-out: IC50”, the concentration for half-maximal inhibition (IC50) was at most 100 nM.

Turning to `CCn1cnc2c(=O)n(-c3ccc(F)cc3)c(Oc3cc(F)cc(F)c3F)nc21` [Compound 26, 9-ethyl-1-(4-fluorophenyl)-2-(2,3,5-trifluorophenoxy)-1,9-dihydro-6H-purin-6-one], the concentration for half-maximal inhibition (IC50) (read-out: IC50) is at most 100 nM.

In the case of `Cn1cnc2c(=O)n(-c3ccc(Cl)cc3)c(Oc3cc(F)cc(F)c3F)nc21` [Compound 27, 1-(4-chlorophenyl)-9-methyl-2-(2,3,5-trifluorophenoxy)-1,9-dihydro-6H-purin-6-one], for the setting “read-out: IC50”, the IC50 was at most 100 nM.

`Cn1cnc2c(=O)n(-c3ccc(Cl)cc3)c(Oc3ccc(C#N)c(F)c3F)nc21` [Compound 28, 4-{[1-(4-chlorophenyl)-9-methyl-6-oxo-6,9-dihydro-1H-purin-2-yl]oxy}-2,3-difluorobenzonitrile]: the IC50 (read-out: IC50) is at most 100 nM.

Regarding `Cn1cnc2c(=O)n(-c3ccc(F)cc3)c(Oc3ccc(C#N)c(F)c3F)nc21` [Compound 29, 2,3-difluoro-4-{[1-(4-fluorophenyl)-9-methyl-6-oxo-6,9-dihydro-1H-purin-2-yl]oxy}benzonitrile], the IC50 (read-out: IC50) was at most 100 nM.

Consider `Cn1cnc2c(=O)n(-c3ccc(Cl)cc3)c(Oc3cc(F)c(F)c(F)c3)nc21` [Compound 30, 1-(4-chlorophenyl)-9-methyl-2-(3,4,5-trifluorophenoxy)-1,9-dihydro-6H-purin-6-one], for which, for the setting “read-out: IC50”, the IC50 is at most 100 nM.

For the molecule `O=c1c2ncccc2nc(Oc2ccc(F)cc2F)n1-c1ccc(F)cc1` [Compound 31, 2-(2,4-difluorophenoxy)-3-(4-fluorophenyl)pyrido[3,2-d]pyrimidin-4(3H)-one], where the note is “read-out: IC50”, the IC50 is at most 100 nM.

As to `O=c1c2ncccc2nc(Oc2ccc(F)c(F)c2F)n1-c1ccc(F)cc1` [Compound 32, 3-(4-fluorophenyl)-2-(2,3,4-trifluorophenoxy)pyrido[3,2-d]pyrimidin-4(3H)-one], the 50% inhibitory concentration (IC50) (read-out: IC50) is at most 100 nM.

For `O=c1c2ncsc2nc(Oc2ccc(F)c(F)c2F)n1-c1ccc(F)cc1` [Compound 33, 6-(4-fluorophenyl)-5-(2,3,4-trifluorophenoxy)[1,3]thiazolo[5,4-d]pyrimidin-7(6H)-one], the IC50 (read-out: IC50) is at most 100 nM.

As for `O=c1c2ncsc2nc(Oc2cccc(F)c2F)n1-c1ccc(F)cc1` [Compound 34, 5-(2,3-difluorophenoxy)-6-(4-fluorophenyl)[1,3]thiazolo[5,4-d]pyrimidin-7(6H)-one], the half-maximal inhibitory concentration (IC50) (read-out: IC50) is at most 100 nM.

Turning to `O=c1c2ncsc2nc(Oc2cc(F)c(F)cc2F)n1-c1ccc(F)cc1` [Compound 35, 6-(4-fluorophenyl)-5-(2,4,5-trifluorophenoxy)[1,3]thiazolo[5,4-d]pyrimidin-7(6H)-one], where the note is “read-out: IC50”, the half-maximal inhibitory concentration (IC50) is at most 100 nM.

For `O=c1c2ncsc2nc(Oc2cc(F)cc(F)c2F)n1-c1ccc(F)cc1` [Compound 36, 6-(4-fluorophenyl)-5-(2,3,5-trifluorophenoxy)[1,3]thiazolo[5,4-d]pyrimidin-7(6H)-one], the IC50 (read-out: IC50) is at most 100 nM.

Regarding `O=c1c2ncsc2nc(Oc2cc(F)c(F)c(F)c2)n1-c1ccc(F)cc1` [Compound 37, 6-(4-fluorophenyl)-5-(3,4,5-trifluorophenoxy)[1,3]thiazolo[5,4-d]pyrimidin-7(6H)-one], the IC50 (read-out: IC50) was at most 100 nM.

On to `O=c1c2ncsc2nc(Oc2ccc(Cl)cc2F)n1-c1ccc(F)cc1` [Compound 38, 5-(4-chloro-2-fluorophenoxy)-6-(4-fluorophenyl)[1,3]thiazolo[5,4-d]pyrimidin-7(6H)-one], for which, where the note is “read-out: IC50”, the IC50 is at most 100 nM.

As to `Cn1cnc2c(=O)n(-c3ccc(Cl)cc3)c(Oc3cccc(C(F)(F)F)c3F)nc21` [Compound 42, 1-(4-chlorophenyl)-2-[2-fluoro-3-(trifluoromethyl)phenoxy]-9-methyl-1,9-dihydro-6H-purin-6-one], where the note is “read-out: IC50”, the IC50 is at most 100 nM.
